Measurements reported in US8853164B2, “Oligopeptide improving differentiation of osteoblasts” (Osstemimplant Co., Ltd., priority 2010, dated 2014).

How the values were obtained:
[1] = system: MG63 cells; assay: Initial cell differentiation ability assay (ALP activity); format: cell-based; settings: differentiation culture medium, measured at Day 3 and 8, relative to PEP111
Procedure: (§1) The effect of the oligopeptide disclosed herein on osteoblastic differentiation was examined by comparing ALP (alkaline phosphatase) activity as an initial differentiation marker of osteoblasts. In order to compare the differentiation ability of osteoblasts, MG63 cells were distributed to a 24-well plate at a concentration of 1×10^5 cells and incubated for 1 day. Then, the cell was treated with each of the PEP7 oligopeptide disclosed herein, and positive controls BMP-2 and PEP111 in a differentiation culture medium and incubated in a 37° C. CO2 incubator. The medium was replaced with a fresh one at 2-day intervals, the ALP activity was measured at Day 3 and 8 after the cultivation (FIG. 2).

[2] = system: MG63 cells; assay: Calcification ability assay (Alizarin red S staining); format: cell-based; settings: Day 14, Alizarin red S staining, relative to PEP111
Procedure: as §1
In order to examine whether the oligopeptide disclosed herein can successfully induce osteogenic differentiation, extracellular matrix calcification was observed. The cultivation was carried out according to the same conditions as described above. At Day 14 and 21, the culture solution was harvested and subjected to Alizarin red S staining (FIG. 5).

[3] = system: MG63 cells; assay: Late cell differentiation ability assay (osteocalcin production, human ELISA kit); format: cell-based; settings: culture solution at Day 14, relative to PEP111
Procedure: as §1
(§2) The effect of the PEP7 oligopeptide on osteoblastic differentiation was examined by comparing the production amount of osteocalcin and osteopontin as a late differentiation marker of osteoblasts. The cultivation was carried out according to the same conditions as described above. At Day 14, the culture solution was harvested, and the amount of osteocalcin and osteopontin therein was measured by using a human ELISA kit (FIGS. 3 and 4).

[4] = system: BMP-specific receptor (BMPR-IA or BMPR-II); assay: BMP specific binding assay (ELISA, absorbance at 595 nm); settings: PEP7 1 μg/well coated, BMPR-IA or BMPR-II 1 μg/well; relative to PEP111
Procedure: PEP7 (1 μg/well) was added to an ELISA plate and incubated at 4° C. for 12 hours. After PEP7 was coated on the plate, BMPR-IA or BMPR-II (1 μg/well) was added thereto and reacted at room temperature for 2 hours, to obtain a PEP7-BMP receptor complex. A primary antibody specific for a BMP receptor (0.5 μg BMR-IA, BMPR-II) was added to the complex and reacted at room temperature for 1 hour. A secondary antibody (BMPR-IA or BMPR-II-Fc Ab-HRP) was then added to the resulting mixture and reacted at room temperature for 1 hour. After ABTS was added to the resulting mixture and reacted at room temperature for 30 minutes, an absorbance of the resulting mixture was measure at 595 nm (FIG. 1, wherein PEP111(A) means the sequence whose 9th amino acid was alanine, PEP111(P) means the sequence whose alanine was replaced with proline, and PEP111(T) means the sequence whose alanine was replaced with threonine).

[5] = system: MG63 cells; assay: Late cell differentiation ability assay (osteopontin production, human ELISA kit); format: cell-based; settings: culture solution at Day 14, relative to PEP111
Procedure: as §1, §2

## KIPKPSSVPTELSAISMLYL (PEP7)
[1]
  ALP (alkaline phosphatase) activity, higher than PEP111: 20%
[2]
  calcification ability, higher than PEP111: about 19%
[3]
  osteocalcin production, more than PEP111: ≥ 14%
[4]
  binding affinity to a BMP-specific receptor, higher than PEP111: about 23%
[5]
  osteopontin production, more than PEP111: ≥ 21%
